This note sets out measurements from US20080221060A1, “Therapeutic Compounds” (priority 2004, published 2008).

The structures appear in SMILES notation. Where two headings read alike, the source gives them in different places.

In the test the target is adenosine receptors (rat striatal membranes, [3H]-CGS21680) (Rattus norvegicus, UniProt P30543). Kind of test: Ki from displacement of [3H]-CGS21680 in rat striatal membranes at pH 5.5 and pH 7.4. Format: binding. Further details: from tissue; host or cells: rat striatum (membranes). As to conditions: 2 nM [3H]-CGS21680, 90 minutes at 22° C.
[1] abbreviates: pH 5.5, read-out: (Ki) nM (pH 5.5).
Where [2] appears, read: pH 7.4, read-out: (Ki) nM (pH 7.4).

Sequence of adenosine receptors (rat striatal membranes, [3H]-CGS21680) (P30543 whole entry): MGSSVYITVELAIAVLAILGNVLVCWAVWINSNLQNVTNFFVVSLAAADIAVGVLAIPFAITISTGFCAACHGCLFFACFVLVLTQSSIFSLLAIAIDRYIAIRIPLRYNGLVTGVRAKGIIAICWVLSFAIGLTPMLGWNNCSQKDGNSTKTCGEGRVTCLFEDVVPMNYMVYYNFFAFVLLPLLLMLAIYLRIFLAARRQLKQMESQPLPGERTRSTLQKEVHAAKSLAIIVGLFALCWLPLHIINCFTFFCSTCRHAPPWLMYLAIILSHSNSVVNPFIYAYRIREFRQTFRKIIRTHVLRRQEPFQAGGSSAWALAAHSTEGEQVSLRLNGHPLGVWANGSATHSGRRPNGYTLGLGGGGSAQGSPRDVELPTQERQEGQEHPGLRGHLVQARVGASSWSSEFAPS

Usually Ki stands for a dissociation constant, usually derived from enzyme kinetics or from competition with a known ligand. Regarding `Nc1nc(OCC(F)F)nc2c1ncn2[C@@H]1O[C@H](CO)[C@@H](O)[C@H]1O` [Compound 2], the Ki reads like this: under setting [1], 17 nM; under setting [2], 780 nM.

Consider `Nc1nc(OCC2CC2)nc2c1ncn2[C@@H]1O[C@H](CO)[C@@H](O)[C@H]1O` [Compound 3], for which the Ki amounted to 39 nM under setting [1] and 670 nM under setting [2]. Regarding `CCCCOc1nc(N)c2ncn([C@@H]3O[C@H](CO)[C@@H](O)[C@H]3O)c2n1` [Compound 4], the Ki reads like this: under setting [1], 11 nM; under setting [2], 280 nM. With `CCCCCCOc1nc(N)c2ncn([C@@H]3O[C@H](CO)[C@@H](O)[C@H]3O)c2n1` [Compound 5], the Ki was found to be 3 nM under setting [1] and 1500 nM under setting [2]. The matching figures for `Nc1nc(Oc2ccccc2)nc2c1ncn2[C@@H]1O[C@H](CO)[C@@H](O)[C@H]1O` [Compound 6, 2-phenoxyadenosine]: 71 nM and 2500 nM.

With `N#Cc1ccc(Oc2nc(N)c3ncn([C@@H]4O[C@H](CO)[C@@H](O)[C@H]4O)c3n2)cc1` [Compound 7], the Ki was determined as 4 nM under setting [1] and 1300 nM under setting [2]. Take `Nc1nc(Oc2cccc(-c3ccccc3)c2)nc2c1ncn2[C@@H]1O[C@H](CO)[C@@H](O)[C@H]1O` [Compound 8]: the Ki is 0.7 nM under setting [1] and 620 nM under setting [2].

Regarding `Nc1nc(Oc2cc(F)ccc2F)nc2c1ncn2[C@@H]1O[C@H](CO)[C@@H](O)[C@H]1O` [Compound 9], the inhibition constant (Ki) turned out to be 16 nM under setting [1] and 2500 nM under setting [2]. Take `Nc1nc(Oc2ccc(F)cc2F)nc2c1ncn2[C@@H]1O[C@H](CO)[C@@H](O)[C@H]1O` [Compound 10]: the Ki amounted to 16 nM under setting [1] and 6400 nM under setting [2]. The matching figures for `Nc1nc(Oc2ccc(F)c(F)c2)nc2c1ncn2[C@@H]1O[C@H](CO)[C@@H](O)[C@H]1O` [Compound 11]: 63 nM and 3300 nM. Turning to `Nc1nc(Oc2cc(F)cc(F)c2F)nc2c1ncn2[C@@H]1O[C@H](CO)[C@@H](O)[C@H]1O` [Compound 12], the Ki reads like this: under setting [1], 46 nM; under setting [2], 5900 nM. On to `Cc1cc(Oc2nc(N)c3ncn([C@@H]4O[C@H](CO)[C@@H](O)[C@H]4O)c3n2)ccc1F` [Compound 13], for which the Ki runs as follows: under setting [1], 43 nM; under setting [2], 3100 nM. As for `Cc1ccccc1Oc1nc(N)c2ncn([C@@H]3O[C@H](CO)[C@@H](O)[C@H]3O)c2n1` [Compound 14], under setting [2], the Ki turned out to be 22000 nM. Take `Nc1nc(Oc2cccc(Br)c2)nc2c1ncn2[C@@H]1O[C@H](CO)[C@@H](O)[C@H]1O` [Compound 15]: the Ki by setting is: under setting [1], 35 nM; under setting [2], 590 nM.

On to `Cc1ccc(Oc2nc(N)c3ncn([C@@H]4O[C@H](CO)[C@@H](O)[C@H]4O)c3n2)cc1` [Compound 16], for which the Ki reads like this: under setting [1], 3.4 nM; under setting [2], 720 nM. For the compound `Nc1nc(Oc2ccc3c(c2)CCC3)nc2c1ncn2[C@@H]1O[C@H](CO)[C@@H](O)[C@H]1O` [Compound 17], the Ki runs as follows: under setting [1], 12 nM; under setting [2], 760 nM. For `CC(C)c1cccc(Oc2nc(N)c3ncn([C@@H]4O[C@H](CO)[C@@H](O)[C@H]4O)c3n2)c1` [Compound 18] the same measures were 16 nM and 560 nM.

Consider `CNc1nc(N)c2ncn([C@@H]3O[C@H](CO)[C@@H](O)[C@H]3O)c2n1` [Compound 19], for which the Ki under setting [2] is 1360 nM. As for `CN(C)c1nc(N)c2ncn([C@@H]3O[C@H](CO)[C@@H](O)[C@H]3O)c2n1` [Compound 21], under setting [2], the Ki was determined as 13300 nM. For `CC[C@@H](C)Nc1nc(N)c2ncn(C3OC(CO)C(O)C3O)c2n1` (some centres unmarked) [Compound 22], the Ki was found to be 33 nM under setting [1] and 510 nM under setting [2]. For the compound `CC[C@H](C)Nc1nc(N)c2ncn(C3OC(CO)C(O)C3O)c2n1` (some centres unmarked) [Compound 23], the inhibitory constant (Ki) under setting [1] came out at 29 nM and the Ki under setting [2] worked out at 1400 nM. The matching figures for `CCCCCCNc1nc(N)c2ncn([C@@H]3O[C@H](CO)[C@@H](O)[C@H]3O)c2n1` [Compound 24]: 0.7 nM and 290 nM. As for `Nc1nc(NC2CC3CCC2C3)nc2c1ncn2[C@@H]1O[C@H](CO)[C@@H](O)[C@H]1O` (some centres unmarked) [Compound 25], the Ki by setting is: under setting [1], 5.5 nM; under setting [2], 120 nM. As for `Nc1nc(Nc2ccccc2)nc2c1ncn2[C@@H]1O[C@H](CO)[C@@H](O)[C@H]1O` [Compound 26, 2-phenylamino adenosine], the Ki was determined as 5 nM under setting [1] and 160 nM under setting [2]. The matching figures for `COc1ccc(Nc2nc(N)c3ncn([C@@H]4O[C@H](CO)[C@@H](O)[C@H]4O)c3n2)cc1` [Compound 27, 2-(4-methoxyphenylamino) adenosine]: 3 nM and 55 nM. With `Nc1nc(Nc2ccc(F)cc2)nc2c1ncn2[C@@H]1O[C@H](CO)[C@@H](O)[C@H]1O` [Compound 28], the Ki is, setting by setting: under setting [1], 10 nM; under setting [2], 200 nM. For the compound `Nc1nc(NC2CCCC2)nc2c1ncn2[C@@H]1O[C@H](CO)[C@@H](O)[C@H]1O` [Compound 29], the Ki under setting [1] came to 2 nM and the Ki under setting [2] came to 420 nM. As to `Nc1nc(NC2CCCCC2)nc2c1ncn2[C@@H]1O[C@H](CO)[C@@H](O)[C@H]1O` [Compound 30, 2-cyclohexylamino adenosine], the Ki turned out to be 0.4 nM under setting [1] and 1000 nM under setting [2]. As to `CC(C)CCN(C)c1nc(N)c2ncn([C@@H]3O[C@H](CO)[C@@H](O)[C@H]3O)c2n1` [Compound 31], the Ki is, setting by setting: under setting [1], 26 nM; under setting [2], 4000 nM. Regarding `Nc1nc(OCC2CCCC2)nc2c1ncn2[C@@H]1O[C@H](CO)[C@@H](O)[C@H]1O` [Compound 32], the Ki is, setting by setting: under setting [1], 0.2 nM; under setting [2], 200 nM. `CCS(=O)(=O)c1nc(N)c2ncn([C@@H]3O[C@H](CO)[C@@H](O)[C@H]3O)c2n1` [Compound 33]: the Ki under setting [1] was found to be 100 nM and the Ki under setting [2] is 39000 nM. With `Nc1nc(OCCO)nc2c1ncn2[C@@H]1O[C@H](CO)[C@@H](O)[C@H]1O` [Compound 34, 2-(β-hydroxyethoxy)-adenosine], the Ki was 4 nM under setting [1] and 203 nM under setting [2].

Consider `Nc1nc(OC2CC(F)(F)C2(F)F)nc2c1ncn2[C@@H]1O[C@H](CO)[C@@H](O)[C@H]1O` (some centres unmarked) [Compound 35], for which the Ki turned out to be 11 nM under setting [1] and 220 nM under setting [2].

For the compound `N#Cc1nc(N)c2ncn([C@@H]3O[C@H](CO)[C@@H](O)[C@H]3O)c2n1` [Compound 38], the Ki runs as follows: under setting [1], 25 nM; under setting [2], 175 nM. For the compound `NC(=O)c1nc(N)c2ncn([C@@H]3O[C@H](CO)[C@@H](O)[C@H]3O)c2n1` [Compound 39], the Ki is, setting by setting: under setting [1], 23 nM; under setting [2], 610 nM. For `CN(C)c1ncnc2c1ncn2[C@@H]1O[C@H](CO)[C@@H](O)[C@H]1O` [Compound 41], the Ki came to 42 nM ((Ki) nM (pH 5.5), pH 5.5) and 450000 nM ((Ki) nM (pH 7.4), pH 7.4). In the case of `CC(C)=CCNc1ncnc2c1ncn2[C@@H]1O[C@H](CO)[C@@H](O)[C@H]1O` [Compound 42], the Ki is, setting by setting: ((Ki) nM (pH 5.5), pH 5.5) 91.5 nM; ((Ki) nM (pH 7.4), pH 7.4) 8600 nM.

For the compound `CN(Cc1ccccc1)c1ncnc2c1ncn2[C@@H]1O[C@H](CO)[C@@H](O)[C@H]1O` [Compound 43], the Ki reads like this: under setting [1], 7 nM; under setting [2], 18500 nM. `CN(Cc1cccc(Br)c1)c1ncnc2c1ncn2[C@@H]1O[C@H](CO)[C@@H](O)[C@H]1O` [Compound 44]: the Ki reads like this: under setting [1], 29 nM; under setting [2], 7500 nM. With `CN(Cc1cccc(C(F)(F)F)c1)c1ncnc2c1ncn2[C@@H]1O[C@H](CO)[C@@H](O)[C@H]1O` [Compound 45], the Ki under setting [1] came out at 3.8 nM and the Ki under setting [2] amounted to 20000 nM. For `OC[C@H]1O[C@@H](n2cnc3c(N4CCNCC4)ncnc32)[C@H](O)[C@@H]1O` [Compound 46], the Ki runs as follows: under setting [1], 38 nM; under setting [2], 5000 nM. For `COCCN(C)c1ncnc2c1ncn2[C@@H]1O[C@H](CO)[C@@H](O)[C@H]1O` [Compound 47], the Ki by setting is: under setting [1], 13 nM; under setting [2], 13000 nM.

`OC[C@H]1O[C@@H](n2cnc3c(OCC4CCCC4)ncnc32)[C@H](O)[C@@H]1O` [Compound 48]: the Ki is, setting by setting: under setting [1], 140 nM; under setting [2], 21000 nM. For `CC(C)NC(=O)[C@H]1O[C@@H](n2cnc3c(N)ncnc32)[C@H](O)[C@@H]1O` [Compound 49], the Ki by setting is: under setting [1], 5 nM; under setting [2], 1930 nM.

Regarding `NC(=O)[C@H]1O[C@@H](n2cnc3c(N)ncnc32)[C@H](O)[C@@H]1O` [Compound 50], the inhibition constant (Ki) amounted to 9 nM under setting [1] and 270 nM under setting [2]. On to `CNc1ncnc2c1ncn2[C@@H]1O[C@H](C(=O)NC(C)C)[C@@H](O)[C@H]1O` [Compound 51], for which the Ki reads like this: under setting [1], 188 nM; under setting [2], 2440 nM. The matching figures for `CC(C)CCNc1ncnc2c1ncn2[C@@H]1O[C@H](C(=O)NC(C)C)[C@@H](O)[C@H]1O` [Compound 52]: 39 nM and 1300 nM.

As for `COc1nc(N)c2ncn([C@@H]3O[C@H](C(=O)Nc4ccccc4)[C@@H](O)[C@H]3O)c2n1` [Compound 53], the Ki by setting is: under setting [1], 230 nM; under setting [2], 26100 nM. The matching figures for `CCCCCCNc1nc(N)c2ncn([C@@H]3O[C@H](C(=O)NCCCC)[C@@H](O)[C@H]3O)c2n1` [Compound 54]: 0.3 nM and 540 nM. The matching figures for `CCCC(=O)NC[C@H]1O[C@@H](n2cnc3c(N)ncnc32)[C@H](O)[C@@H]1O` [Compound 55]: 145 nM and 16900 nM. On to `CCNC(=O)NC[C@H]1O[C@@H](n2cnc3c(N)ncnc32)[C@H](O)[C@@H]1O` [Compound 56], for which the Ki turned out to be 40 nM under setting [1] and 6570 nM under setting [2].

In the case of `CN(C)c1nc(NC2CCCCC2)nc2c1ncn2[C@@H]1O[C@H](CO)[C@@H](O)[C@H]1O` [Compound 57], the inhibition constant (Ki) reads like this: under setting [1], 2.6 nM; under setting [2], 18000 nM.
